Assays:
Test in all cases: relative viability (nuclei count vs DMSO), 5 days (fraction); higher = more cells survive
201T = tested on: 201T
Procedure, shortened: (§1)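 Relative viability equals treated-well nuclei counts divided by vehicle-well nuclei counts. Counts came from 4× images of lung cancer cell lines grown in 1536-well plates for 5 days after pin-tool dosing on the day after seeding. Dosing used one drug alone or a fixed anchor-drug dose plus five library-drug doses (not always all listed) in √10 steps, and values are medians of duplicate plates.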

CAL-12T = tested on: CAL-12T
Procedure, shortened: as §1

COR-L 105 = tested on: COR-L 105
Procedure, shortened: as §1

EKVX = tested on: EKVX
Procedure, shortened: as §1

EPLC-272H = tested on: EPLC-272H
Procedure, shortened: as §1

H3255 = tested on: H3255
Procedure, shortened: as §1

HCC-15 = tested on: HCC-15
Procedure, shortened: as §1

HCC-44 = tested on: HCC-44
Procedure, shortened: as §1

HCC-827 = tested on: HCC-827
Procedure, shortened: as §1

HOP-62 = tested on: HOP-62
Procedure, shortened: as §1

LCLC-103H = tested on: LCLC-103H
Procedure, shortened: as §1

NCI-H1355 = tested on: NCI-H1355
Procedure, shortened: as §1

NCI-H1437 = tested on: NCI-H1437
Procedure, shortened: as §1

NCI-H1755 = tested on: NCI-H1755
Procedure, shortened: as §1

NCI-H1793 = tested on: NCI-H1793
Procedure, shortened: as §1

NCI-H2009 = tested on: NCI-H2009
Procedure, shortened: as §1

NCI-H322M = tested on: NCI-H322M
Procedure, shortened: as §1

NCI-H441 = tested on: NCI-H441
Procedure, shortened: as §1

NCI-H520 = tested on: NCI-H520
Procedure, shortened: as §1

NCI-H522 = tested on: NCI-H522
Procedure, shortened: as §1

NCI-H596 = tested on: NCI-H596
Procedure, shortened: as §1

NCI-H647 = tested on: NCI-H647
Procedure, shortened: as §1

PC-3 [JPC-3] = tested on: PC-3 [JPC-3]
Procedure, shortened: as §1

SK-LU-1 = tested on: SK-LU-1
Procedure, shortened: as §1

UMC-11 = tested on: UMC-11
Procedure, shortened: as §1

Molecule `Nc1cccc2c1CN(C1CCC(=O)NC1=O)C2=O` (stereo not given) [Lenalidomide] + COc1cccc2cc(-c3nc([C@H]4CC[C@H](C(=O)O)CC4)n4ncnc(N)c34)[nH]c12 [OSI-027] (partner 0.5 µM) has a relative viability (201T; first compound 0.253 µM) of 0.767, a relative viability (201T; first compound 0.8 µM) of 0.494 and a relative viability (201T; first compound 2.53 µM) of 0.799. For the same molecule, the relative viability (201T; first compound 8 µM) was 0.791, the relative viability (CAL-12T; first compound 0.253 µM) was 0.599 and the relative viability (CAL-12T; first compound 0.8 µM) was 0.555. It also gave a relative viability (CAL-12T; first compound 2.53 µM) of 1.01, a relative viability (CAL-12T; first compound 8 µM) of 0.619 and a relative viability (COR-L 105; first compound 0.253 µM) of 0.715. For the same molecule, the relative viability (COR-L 105; first compound 0.8 µM) was 0.632, the relative viability (COR-L 105; first compound 2.53 µM) was 0.697 and the relative viability (COR-L 105; first compound 8 µM) was 0.821. The relative viability (EKVX; first compound 0.253 µM) was 0.724, the relative viability (EKVX; first compound 0.8 µM) was 0.734 and the relative viability (EKVX; first compound 2.53 µM) was 0.696. It also gave a relative viability (EKVX; first compound 8 µM) of 0.702, a relative viability (EPLC-272H; first compound 0.253 µM) of 0.297 and a relative viability (EPLC-272H; first compound 0.8 µM) of 0.339. For the same molecule, the relative viability (EPLC-272H; first compound 2.53 µM) was 0.292, the relative viability (EPLC-272H; first compound 8 µM) was 0.283 and the relative viability (H3255; first compound 0.253 µM) was 0.633. It also gave a relative viability (H3255; first compound 0.8 µM) of 0.65, a relative viability (H3255; first compound 2.53 µM) of 0.55 and a relative viability (H3255; first compound 8 µM) of 0.516. For the same molecule, the relative viability (HCC-15; first compound 0.253 µM) was 0.705, the relative viability (HCC-15; first compound 0.8 µM) was 0.578 and the relative viability (HCC-15; first compound 2.53 µM) was 0.826. The relative viability (HCC-15; first compound 8 µM) was 0.689, the relative viability (HCC-44; first compound 0.253 µM) was 0.636 and the relative viability (HCC-44; first compound 2.53 µM) was 0.535. The relative viability (HCC-44; first compound 8 µM) was 0.512, the relative viability (HCC-827; first compound 0.253 µM) was 0.807 and the relative viability (HCC-827; first compound 0.8 µM) was 0.74. The relative viability (HCC-827; first compound 2.53 µM) was 0.849, the relative viability (HCC-827; first compound 8 µM) was 0.831 and the relative viability (HOP-62; first compound 0.253 µM) was 0.685. The relative viability (HOP-62; first compound 0.8 µM) was 0.802, the relative viability (HOP-62; first compound 2.53 µM) was 0.998 and the relative viability (HOP-62; first compound 8 µM) was 0.789. The relative viability (LCLC-103H; first compound 0.253 µM) was 0.433, the relative viability (LCLC-103H; first compound 0.8 µM) was 0.433 and the relative viability (LCLC-103H; first compound 2.53 µM) was 0.512. For the same molecule, the relative viability (LCLC-103H; first compound 8 µM) was 0.473, the relative viability (NCI-H1355; first compound 0.253 µM) was 0.449 and the relative viability (NCI-H1355; first compound 2.53 µM) was 0.436. It also gave a relative viability (NCI-H1355; first compound 8 µM) of 0.362, a relative viability (NCI-H1437; first compound 0.253 µM) of 0.888 and a relative viability (NCI-H1437; first compound 0.8 µM) of 1.11. For the same molecule, the relative viability (NCI-H1437; first compound 2.53 µM) was 0.993, the relative viability (NCI-H1437; first compound 8 µM) was 0.956 and the relative viability (NCI-H1755; first compound 0.253 µM) was 0.757. It also gave a relative viability (NCI-H1755; first compound 0.8 µM) of 0.72, a relative viability (NCI-H1755; first compound 2.53 µM) of 0.79 and a relative viability (NCI-H1755; first compound 8 µM) of 0.67. For the same molecule, the relative viability (NCI-H1793; first compound 0.253 µM) was 0.359, the relative viability (NCI-H1793; first compound 2.53 µM) was 0.319 and the relative viability (NCI-H1793; first compound 8 µM) was 0.244. It also gave a relative viability (NCI-H2009; first compound 0.253 µM) of 0.627, a relative viability (NCI-H2009; first compound 0.8 µM) of 0.64 and a relative viability (NCI-H2009; first compound 2.53 µM) of 0.779. For the same molecule, the relative viability (NCI-H2009; first compound 8 µM) was 0.759, the relative viability (NCI-H322M; first compound 0.253 µM) was 0.53 and the relative viability (NCI-H322M; first compound 0.8 µM) was 0.527. It also gave a relative viability (NCI-H322M; first compound 2.53 µM) of 0.609, a relative viability (NCI-H322M; first compound 8 µM) of 0.558 and a relative viability (NCI-H441; first compound 0.253 µM) of 0.485. For the same molecule, the relative viability (NCI-H441; first compound 0.8 µM) was 0.666, the relative viability (NCI-H441; first compound 2.53 µM) was 0.876 and the relative viability (NCI-H441; first compound 8 µM) was 0.631. For the same molecule, the relative viability (NCI-H520; first compound 0.253 µM) was 0.284, the relative viability (NCI-H520; first compound 0.8 µM) was 0.25 and the relative viability (NCI-H520; first compound 2.53 µM) was 0.311. It also gave a relative viability (NCI-H520; first compound 8 µM) of 0.281, a relative viability (NCI-H522; first compound 0.253 µM) of 0.754 and a relative viability (NCI-H522; first compound 2.53 µM) of 0.696. It also gave a relative viability (NCI-H522; first compound 8 µM) of 0.596, a relative viability (NCI-H596; first compound 0.253 µM) of 0.784 and a relative viability (NCI-H596; first compound 2.53 µM) of 0.764. It also gave a relative viability (NCI-H596; first compound 8 µM) of 0.532, a relative viability (NCI-H647; first compound 0.253 µM) of 0.587 and a relative viability (NCI-H647; first compound 0.8 µM) of 0.551. The relative viability (NCI-H647; first compound 2.53 µM) was 1.02, the relative viability (NCI-H647; first compound 8 µM) was 0.744 and the relative viability (PC-3 [JPC-3]; first compound 0.253 µM) was 0.832. It also gave a relative viability (PC-3 [JPC-3]; first compound 0.8 µM) of 0.569, a relative viability (PC-3 [JPC-3]; first compound 2.53 µM) of 0.769 and a relative viability (PC-3 [JPC-3]; first compound 8 µM) of 0.818. It also gave a relative viability (SK-LU-1; first compound 0.253 µM) of 0.313, a relative viability (SK-LU-1; first compound 0.8 µM) of 0.361 and a relative viability (SK-LU-1; first compound 2.53 µM) of 0.36. The relative viability (SK-LU-1; first compound 8 µM) was 0.421, the relative viability (UMC-11; first compound 0.253 µM) was 0.456 and the relative viability (UMC-11; first compound 0.8 µM) was 0.576. The relative viability (UMC-11; first compound 2.53 µM) was 0.53 and the relative viability (UMC-11; first compound 8 µM) was 0.464.
